How the values were obtained:
[1] = tested on: patients of Examples I, II and III; assay: Example IV: other hydroxyguanidines substituted for hydroxy-L-arginine in Examples I, II and III; type: in vivo, human; conditions: same dosage as in Examples I
[2] = tested on: patient with end stage renal disease; assay: Example I: patient with end stage renal disease on chronic hemodialysis treated with hydroxy-L-arginine; type: in vivo, human; conditions: 1-20 mg/kg thrice/day, 6 months later
Excerpt: (In some cases, renal biopsy will be performed, which will directly disclose the deposition of AGE in the renal parenchyma and increased proportion of SA-beta-galactosidase-stained endothelial cells). […] In addition, the patient has their arterio-veinous fistula revised 3 times due to clotting and stenosis. The patient is also complaining of a non-healing foot ulcer and intermittent claudication, both signs of peripheral vascular disease.

[3] = tested on: patient with type I (alternatively type 2) diabetes mellitus; assay: Example II: poorly controlled diabetes mellitus patient treated with hydroxy-L-arginine; type: in vivo, human; conditions: 1-20 mg/kg thrice/day, 6 months later
Procedure: A patient with type I (alternatively, a patient with type 2) diabetes mellitus, past medical history of myocardial infarction, peripheral vascular disease, hypertension, proteinuria and non-healing foot ulcer, is receiving insulin, but patient is poorly compliant. Patient's fasting blood glucose level is 200 mg/dl. Additional laboratory findings include elevated Hgb Alc level (8.5%) as well as one of the following levels of AGE: elevated level of pentosidine (2.3 pmol/mg) or elevated level of Amadori serum albumin (41 U/ml). (In some cases, renal biopsy will be performed, which will directly disclose the deposition of AGE in the renal parenchyma and increased proportion of SA-beta-galactosidase-stained endothelial cells).

[4] = tested on: saphenous vein endothelial cells seeded on artificial vascular graft; assay: Example VI: artificial vascular graft seeded with endothelial cells cultured with hydroxy-L-arginine, implanted; type: in vivo, human; conditions: cells cultured with 10-100 μg/ml at 35° C. for 2-3 weeks
Procedure: A person with peripheral vascular disease is undergoing an elective femoral-to-popliteal bypass surgery utilizing an artificial vascular graft. A saphenous vein is obtained to harvest endothelial cells for expansion and seed on the surface of a graft. Expanded endothelial cells are cultured in the medium containing hydroxy-L-arginine, 10-100 μg/ml at 35° C. for 2-3 weeks, and cells are seeded on the graft in the continuous presence of the same concentration of hydroxy-L-arginine. Thus prepared, the vascular graft is implanted.

[5] = tested on: saphenous vein endothelial cells seeded on artificial valve; assay: Example V: artificial heart valve seeded with endothelial cells cultured with hydroxy-L-arginine, implanted; type: in vivo, human; conditions: cells cultured with 10-100 μg/ml at 35° C. for 2-3 weeks
Procedure: A person with a defective heart valve is being prepared for a surgical replacement of the valve with a prosthetic device. A saphenous vein is obtained to harvest endothelial cells for expansion and seeding on the surface of a artificial valve. Expanded endothelial cells are cultured in the medium containing hydroxy-L-arginine, 10-100 μg/ml at 35° C. for 2-3 weeks and cells are seeded on the valve in the continuous presence of the same concentration of hydroxy-L-arginine. Thus prepared, the artificial valve is implanted.

[6] = tested on: Human umbilical vein endothelial cells (HUVEC); assay: SA β-galactosidase staining of HUVEC plated on glycated collagen (premature senescence); type: cell-based; conditions: for reduction/reversal of premature senescence across dilutions of glycated collagen: HUVEC on glycated collagen at different dilutions/concentrations of glycated matrix
Procedure: Detection of SA-β-galactosidase was carried out utilizing the histochemical staining method of Dimitri et al, Proc. Natl. Acad. Sci. USA 92, 9363-9367 as modified by Van der Loo, B., et al, Exp. Cell Res. 241, 309-315 (1998). SA-β-galactosidase is a known senescence marker. […] This phenomenon occurred in 12 week and 21 week-old diabetic rats, but was undetectable in age-matched Zucker lean rats (0/24 branches examined).
Human umbilical vein endothelial cells (HUVEC) after four passages were plated on glycated collagen with the addition of 0.1 mM hydroxy-L-arginine vis-a-vis the same concentration of L-arginine. Application was made on day 1, 2 hours after plating. The extent of SA β-galactosidase staining was evaluated on days 3 and 5 of culture on a glycated or native matrix. In addition, to study the reversibility process, HUVEC were plated on glycated collagen for three days (time sufficient to induce premature senescence), and hydroxy-L-arginine was added every 12 hours, starting on day 3, and the cells were examined on day 5.

[7] = tested on: patient diagnosed with Alzheimer's disease; assay: Example III: patient with Alzheimer's disease treated with hydroxy-L-arginine; type: in vivo, human; conditions: 1-20 mg/kg thrice/day alone or with antioxidant agents and vitamins; two years later
Procedure: A person with no known medical conditions has been experiencing a sustained loss of short-term memory for the past three years. Their CBC, electrolytes and other plasma parameters of metabolic profile are within normal range. There is no vitamin deficiency, no abnormalities in liver function tests, and no previous history of cerebro-vascular accidents. […] Based on these findings the patient is diagnosed with Alzheimer's disease. Therapy with hydroxy-L-arginine is initiated at doses 1-20 mg/kg thrice/day alone or in combination with antioxidant agents and vitamins (e.g., ascorbate, alpha-tocopherol, vitamin B6, vitamin B12, folate (folic acid), carotenoids, coenzyme Q10, phytoestrogens (including isoflavonoids), selenium, butylated hydroxytoluene (BHT), butylated hydroxyanisole (BHA) and n-3 polyunsaturated fatty acids (PUFA)).

| Compound | results when substituted for hydroxy-L-arginine at the same dosage [1] | coronary symptoms [2] | foot ulcer [2] | pentosidine level after treatment ([2]; baseline 2.5 pmol/mg) | Amadori serum albumin level after treatment ([2]; baseline 40 U/ml) | blood pressure ([2]; baseline 175/105 mmHg) | blood pressure [3] | coronary angiogram [3] | coronary symptoms [3] | foot ulcer [3] | pentosidine level after treatment ([3]; baseline 2.3 pmol/mg) | Amadori serum albumin level after treatment ([3]; baseline 41 U/ml) | thrombotic and atheroembolic complications [4] | thrombotic and atheroembolic complications [5] | development of premature senescence (SA β-galactosidase staining) ([6]; HUVEC grown on glycated collagen, 0.1 mM added to culture medium on day 1, 2 hours after plating, evaluated days 3 and 5) | reduction/reversal of premature senescence across dilutions of glycated collagen [6] | symptoms related to the memory loss [7] |
| --- | --- | --- | --- | --- | --- | --- | --- | --- | --- | --- | --- | --- | --- | --- | --- | --- | --- |
| N=C(N)NO [hydroxyguanidine, Hydroxyguanidine] | Positive results similar to those obtained in Examples I, II and III | – | – | – | – | – | – | – | – | – | – | – | – | – | – | – | – |
| N=C(NO)NCCC[C@H](N)C(=O)O [hydroxy-L-arginine, N^ω-hydroxy-L-arginine] | – | significant subjective improvement | healing of foot ulcer | 1.7 pmol/mg | 30 U/ml | normalization of blood pressure | normalization of blood pressure | either no further worsening of stenotic lesions or some degree of improvement | significant subjective improvement | healing of foot ulcer | 1.7 pmol/mg | 30 U/ml | less thrombotic and atheroembolic complications | less thrombotic and atheroembolic complications | completely abolished the development of premature senescence | able to reduce premature senescence at all dilutions of glycated collagen | no deterioration and a partial improvement |
| N=C(N)NCCC[C@H](N)C(=O)O [L-arginine, reference compound] | – | – | – | – | – | – | – | – | – | – | – | – | – | – | – | failed to reverse premature senescence at higher concentrations of glycated matrix | – |

From US6967219B2, “Reversing or preventing premature vascular senescence” (Cornell Research Foundation, Inc., priority 2001, dated 2005)
